Measured values as given in patent publication US11241422B2, “Methods for treatment of Fabry disease” (Amicus Therapeutics, Inc., priority 2006, dated 2022).
Positions count from the first letter of the chain named.

Columns and labels:
[1] = biological target: T1, mutant α-GAL (Homo sapiens, UniProt P06280, A97V); experiment: T cell-based α-GAL enhancement assay, T cells from Fabry patients cultured with DGJ; design: key to Enhancement Group / Enhancement ratio: E: enhanceable;; I: enhanceable (intermediate);; NE: not enhanceable;; conditions: for α-GAL activity / dosage effect on α-GAL activity: A97V T cells
T1 construct: was put into a fresh tube and used as the source of α-GAL; endogenous in cells; host or cells: T cell cultures established from blood of Fabry patients
T1 sequence (P06280 32-429 A97V): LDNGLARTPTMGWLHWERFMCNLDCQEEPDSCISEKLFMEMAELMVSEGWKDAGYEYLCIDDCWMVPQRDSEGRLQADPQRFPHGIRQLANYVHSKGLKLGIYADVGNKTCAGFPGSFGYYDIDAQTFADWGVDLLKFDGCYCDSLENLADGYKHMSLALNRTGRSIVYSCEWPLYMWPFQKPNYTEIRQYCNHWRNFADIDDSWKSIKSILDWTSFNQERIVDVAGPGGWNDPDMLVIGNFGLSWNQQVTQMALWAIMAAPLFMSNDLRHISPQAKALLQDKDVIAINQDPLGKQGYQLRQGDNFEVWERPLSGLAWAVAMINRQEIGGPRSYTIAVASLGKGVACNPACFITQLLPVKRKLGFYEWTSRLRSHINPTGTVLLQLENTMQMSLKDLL
Method: 2. WBC Separation: • Patient blood was drawn into an 8 mL CPT tube, which has been stored at 18-25° C. • immediately after collecting blood, it was mixed by inverting the tube 8-10 times. • The tube was centrifuged at room temperature (18-25° C.) for 30 minutes at 1800× g using a tabletop centrifuge equipped with swinging buckets. Universal precautions for handling blood specimens were taken, including the use of a closed canister type bucket for centrifugation. • Following centrifugation, several layers of the blood composition become distinguishable which represented separation of the red blood cells from the plasma and white cells.
3. Washing of WBC's • Half of the plasma layer was aspirated by vacuum and discarded without disturbing the white cell layer. All of the remaining fluid, including the cell layer, was transferred with a Pasteur pipette to a 15 mL conical screw-cap Falcon centrifuge tube. • PBS was added to bring the volume up to 14 mL and the tube was mixed by inversion. • The tube was centrifuged at room temperature for 20-30 minutes at 1300 rpm (approximately 320× g). • Immediately after centrifugation, as much supernatant as possible was aspirated by vacuum and discarded without disturbing the cell pellet.
5. Optional: Freezing WBC Pellet • The cell pellet was mixed in the remaining liquid by tapping a finger against the bottom of the tube. • 0.5 to 1 mL of PBS was added to the re-suspended cells and one half of the pellet was transferred (using a sterile tip on a micropipette) to a labeled 1.8 mL cryovial. • The cryovial was centrifuged at room temperature for 5 minutes at 5000 rpm (approximately 2250 g) in a microcentrifuge. • All of the supernatant liquid was discarded using a Pasteur pipette without disturbing the cell pellet. • 0.5 to 1 ml of RPMI 1640 containing 10% FBS and 5% DMSO was then added to the tube and mixed a pipette and frozen overnight at −80 C prior to transferring to a liquid nitrogen cell storage freezer. B. Establishment of T-Cell Cultures from Blood Specimens • 1. The washed cells were re-suspended in 3.0 ml of RPMI 1640 medium with 10% Cosmic Calf Serum (CCS, Hyclone Laboratories, Logan, Utah), about 25 ng/ml IL-2 (PreProTECH, Rocky Hill, N.J.) and the manufacturer's recommended concentration of PHA (Life Technology, Gaithersburg, Md.). The cells were then transferred to an upright an upright […] culture flask and incubated for 3-4 days at 37° C., 5% CO2. • 2. The cell culture was diluted to 5 ml with growth medium (RPMI-1640, 10% FBS, 25 ng/ml IL-2). The cell concentration was then adjusted to about 5×10^5 cells/ml in the flask. • 3. The growth of the cells was monitored daily. Cells were maintained between 5×10^5 and 1.5×10^6 cells in an upright flask. […] Senescence of the culture will be apparent by a dramatic reduction in growth rate. Culture time may possibly be extended by re-stimulation with PHA. • 4. Optional-Freezing T-lymphocytes: T-lymphocytes may be frozen at 3×10^6 cells/vial using RPMI1640 medium containing 20% FCS and 7.5% DMSO. On day 5, 6, or 7 cryopreserve as many vials as possible at 3×10^6 cells/vial. This is sufficient to thaw 5 mLs of culture at 5×10^5 viable cells/ml. When establishing T-cell cultures, the following should be noted. • Fresh blood specimens should be collected in heparinized tubes (or tubes containing an appropriate anti-coagulant) and used the same day. ACD tubes should be used if specimens cannot be processed within 24 hours. (Clin Chem 1988 January; 34(1):110-3; Clin Diagn Lab Immunol. 1998 November; 5(6):804-7.). • Eight-10 mLs of blood is usually sufficient to establish 20 million cells by day 5. • T lymphocytes are the specific targets of the HIV virus. Use extreme care if the HIV status of the patient is unknown. • Each new lot of IL-2 should be tested to determine the optimal concentration.

[2] = biological target: T2, α-GAL (Homo sapiens, UniProt P06280); experiment: Western blot of α-GAL protein level in T cells cultured with DGJ; type: cell-based; design: endogenous in cells; host or cells: T cells of Fabry patients and normal controls; conditions: normal control cells, treatment with DGJ
T2 sequence (P06280 32-429): T1 sequence (P06280 32-429 A97V) with V66A
Method: The level of α-GAL protein measured by Western blot. Protein was determined using a Micro BCA Protein Assay kit (Pierce, Rockford, Ill.) with bovine serum albumin (BSA) as a standard. Absorbance at 562 nm was measured using the Molecular Devices VersaMax absorbance reader in a 96-well format. For gel electrophoresis prior to western blotting, proteins were separated using Novex Tris-glycine native or SDS-PAGE in 8-16% gradient gels (Invitrogen). Western blots were developed using rabbit polyclonal antibody against α-GAL was performed as described previously (Park et al., Proc Natl Acad Sci USA. 2003; 100: 3450-54).

- α-GAL activity ([1]; 20 μM DGJ, 1 day of incubation): about 40 % of normal
- α-GAL activity ([1]; 20 μM DGJ, 4 days of incubation): 80 % of normal
- dosage effect on α-GAL activity ([1]; DGJ 2 nM to 20 μM): dose-dependent manner
- dosage effect on α-GAL activity ([1]; DGJ 200 μM compared with 20 μM): decrease in α-GAL activity
- increase of activity in the presence of DGJ ([1]; A97V mutation, T cells): 6 fold
- DGJ concentration of optimal enhancement of activity ([1]; A97V mutation, three experiments, 2 nM-200 μM): 20 µM
- Enhancement Group ([1]; Fabry patient T cells, mutation A97V): E
- Activity (% Normal) (+DGJ) ([1]; Fabry patient T cells, mutation A97V, 20 μM DGJ): 75 % Normal
- Enhancement ratio ([1]; Fabry patient T cells, mutation A97V, +DGJ vs −DGJ): 5.5
- Western blot band intensity of α-GAL protein [2]: considerably increased
Compound: OC[C@H]1NC[C@H](O)[C@@H](O)[C@H]1O [DGJ, 1-deoxygalactonojirimycin]
